# Columns and labels:
# [1] = adsorption effect of PBT in cell culture chambers (active substance adsorption); assay type: physicochemical; conditions: after 24 hours; both embodiments Chip PBT-BC1 and Chip PBT-BC2; control stock solution propiconazole 100 μM, troglitazone 64 μM
# Description: After an incubation period of 24 h, at least 80% of the starting concentration of the propiconazole or the troglitazone is detectable in the culture medium (cf. FIG. 3A, FIG. 3B).
# FIGS. 3A and 3B show results of experiments on the adsorption effect of PBT in two cell culture chambers 1 according to the disclosure of different designs. The designation, “Chip PBT-BC1,” denotes a first embodiment of the cell culture chamber 1, and “Chip PBT-BC2” a second embodiment. The first embodiment has a width B of 34.6 mm, a depth T of 6.56 mm, and a height H of 0.7 mm for the first channel 3. The second channel 4 has the dimensions of 44.8 mm, 3.6 mm, and 0.8 mm (W/D/H). The corresponding dimensions for the second embodiment, “Chip PBT-BC2,” of the cell culture chamber 1 are 34.6 mm, 8.06 mm, and 0.7 mm (W/D/H) for the first channel 3 and 49.4 mm, 5.61 mm, and 1.0 mm (B/T/H) for the second channel 4.
# In comparison, a control in the form of a stock solution (100 μM) with propiconazole is given. […] In each case, it can be seen from the two graphics that, in both embodiments of the cell culture chamber 1 according to the disclosure, more than 85% of the propiconazole (FIG. 3A) and more than 80% of the troglitazone (FIG. 3B) in the culture medium 7 could be detected even after 24 hours.
# [2] = after 24 hours in PDMS chips; binds irreversibly to PDMS; cited from earlier work
# [3] = cited from earlier work
# [4] = tested on: macrophages in co-culture with liver sinusoidal endothelial cells and hepatocytes; test: LPS addition to liver model to check activatability of immune cells (cytokine release); assay type: cell-based; conditions: LPS added at the tenth and fourteenth day of culture; FIG. 8
# Description: In addition, lipopolysaccharide (LPS) was added to some samples at the tenth day and the fourteenth day to check the activatability of immune cells (macrophages) contained in the liver model, and the respective reactions were shown. The addition of LPS as a so-called pyrogenic substance represents a test for endotoxins that is customary in the art. Immune cells such as macrophages respond to this stimulus with increased release of cytokines. […] It can be deduced from this that macrophages in co-culture with the investigated liver sinusoidal endothelial cells and hepatocytes were capable of reacting with an immune response to an endotoxin even after 10 or after 14 days. This is important for being able to detect immune cell-mediated side effects of drugs.
molecule,measurement,setting,value
CCCC1COC(Cn2cncn2)(c2ccc(Cl)cc2Cl)O1 (stereo not shown) [propiconazole],percentage (RTC - ratio to control) remaining and detectable in the culture medium,[1],more than 85%
same,detected fraction of the starting concentration in the culture medium,[2],less than 30%
Cc1c(C)c2c(c(C)c1O)CCC(C)(COc1ccc(CC3SC(=O)NC3=O)cc1)O2 (stereo not shown) [troglitazone],log P,[3],3.60
lipopolysaccharide [LPS],concentration of IL-1beta after the addition of LPS,[4],distinct increase
